{
  "source": "patent US8865747B2",
  "about": "“Pioglitazone for use in the treatment of adrenoleukodystrophy” (Fundació Institut D'Investigació Biomèdica de Bellvitge …, priority 2012, dated 2014)",
  "key": {"[1]": {"settings": "Yamada T. et al. 2000; cited from earlier work"}, "[2]": {"tested_on": "Abcd1-null mice", "test": "ATP levels, NAD-NADH determination and pyruvate kinase activity in spinal cord", "type": "in vivo, mouse", "settings": "Abcd1− mice fed 2 months with pioglitazone, 12 months of age", "experimental": "(§1) Pioglitazone (Actos®) was mixed into AIN-76A chow from Dyets (Bethlehem, Pa.) at 0.012% w/w, corresponding to a dose of 9 mg/kg/day per mice [Yan Q. et al., J. Neurosci. 2003, 23, 7504-7509]. […] .\nTo determine ATP levels, mice were sacrificed by cervical dislocation and spinal cords immediately frozen in liquid nitrogen and stored at −80° C. ATP was extracted with cold perchloric acid (10%) from 10 mg of spinal cord, neutralized with KOH and centrifugated [Khan H. A. et al., J. Biosci. 2003, 28, 379-382]. Then, ATP concentrations were quantified in triplicate per animal using the ATPlite 1 step (PerkinElmer) according to the manufacturer's protocol. Data were normalized to mg of proteins. All assays were performed in triplicate.\nNAD^+ and NADH were quantified by the NAD cycling assay and pyruvate kinase activity was determined by a spectrophotometrical method as previously described [Galino J. et al., Antiox. Redox Signal 2011, 15, 2095-2107]."}, "[3]": {"tested_on": "Abcd1-null mice", "test": "Relative gene expression by quantitative RT-PCR in spinal cord", "type": "in vivo, mouse", "settings": "Abcd1− mice fed 2 months with pioglitazone, 12 months of age, FIG. 12", "experimental": "as §1\nFirst tissues were lysed using Trizol reagent (Invitrogen), then total RNA was extracted using RNeasy Kit (Qiagen). Lysis and extraction were performed according to the manufacturer's instructions. Total DNA from tissues was extracted using Gentra Puregene Tissue Kit (Qiagen) according to the manufacturer's instructions.\n[…] of RNA was transcribed into cDNA using Superscript II reverse transcription reagents in a final volume of 25 μl (Invitrogen). A TaqMan real time PCR was performed within the ABI PRISM 7300HT sequence detection system using the TaqMan Universal PCR master mix and the standardized primers for mouse SIRT1 (Mm00490758) PGC-1α (Mm00447183), PGC-1β (Mm01258518), ERRα (Mm00433143), NRF-1 (Mm00447996), TFAM (Mm00447485), TFB1M (Mm00524825) and TFB2M (Mm01620397). To measure gene expression and mtDNA abundance 0.1 to 0.2 μl of cDNA and 100 ng of DNA were respectively used.\nTo quantify mouse and human mtDNA content, two probes (mouse cytochrome b (cytb) (Gene ID: 17711) and human cytochrome c […] subunit II (COXII) (Gene ID: 4513) were respectively designed (Custom TaqMan Gene Expression Assays; Applied Biosystems). The sequences for mouse cytb primers were: […] (SEQ ID NO: 1) (forward) and […] (SEQ ID NO: 2) (reverse) and the FAM-labeled probe was TTGCAACTATAGCAACAG (SEQ ID NO: 3). The sequences for human COXII primers were: […] (SEQ ID NO: 4) (forward) and […] (SEQ ID NO: 5) (reverse) and the FAM-labeled probe was AAATCTGTGGAGCAAACC (SEQ ID NO: 6). Quantification of mtDNA was referred to nuclear DNA as determined by the amplification of the intronless nuclear gene C/EBPα. (Mouse and human CEBPα are respectively: Mm00514283, Hs00269972.). Each sample was run in duplicate, and the mean value of the duplicate was used to calculate the mRNA expression of the genes of interest which were normalized to that of the reference control (18S, Hs99999901) using the comparative (2^−ΔCt) method, according to the manufacturer's instructions."}, "[4]": {"tested_on": "Abcd1−/Abcd2−/− (DKO) mice", "test": "Horizontal bar cross test", "settings": "after 2 months of treatment, FIG. 19", "method": "We set up a preclinical trial to assess the effect of pioglitazone on the progression of clinical signs using DKO null mice as the model Animals were randomly assigned to one of the following groups.\nThe bar cross test was carried out using a wooden bar of 100 cm in length and 2 cm in width (diameter). This bar is just wide enough for the mice to stand on with their hind feet hanging over the edge such that any slight lateral misstep will result in a slip. […] Bar cross test was performed basically as previously described [Lopez-Erauskin J. et al., Ann.\nMice were evaluated by the treadmill test and the bar-cross at the start and re-scored after 2 (i.e 15 months of age), and 4 months (i.e. 17 months of age) of the treatment."}, "[5]": {"tested_on": "SIRT1", "test": "SIRT1 immunoprecipitation and carbonyl (DNPH) measurement in spinal cord", "type": "in vivo, mouse", "settings": "Abcd1− mice fed 2 months with pioglitazone, 12 months of age, FIG. 13", "experimental": "as §1\nSince the specific carbonylated SIRT1 antibody is not available, SIRT1 has been immunoprecipitated to measure carbonyl levels, as earlier described [Caito S. et al., Faseb J. 2010, 24, 3145-3159]. Protein (200 μg) extracted from whole spinal cord in a final volume of 400 μl RIPA buffer was incubated for 1 h with SIRT1 antibody [12193, (Abcam)] ((Abcam, 12193), dilution 1:80). Protein A sepharose (Amersham) was suspended in PBS for 1 h then blocked in BSA (1%) for 1 h. Protein A sepharose (50 μl ) was added to each sample and left overnight at 4° C. on a rotator. The samples are then centrifuged at 13,000 rpm at 4 ° C. for 5 min. […] Neural. 2011, 70, 84-92]."}, "[6]": {"tested_on": "SIRT1", "test": "SIRT1 fluorometric activity assay on spinal cord protein", "type": "in vivo, mouse", "settings": "Abcd1− mice fed 2 months with pioglitazone, 12 months of age, FIG. 13", "experimental": "as §1\nWe used a SIRT1 fluorometric assay kit (BIOMOL) based on the generation of a fluorophore via the NADtdependent deacetylation by SIRT1 of its substrate, which is a peptide comprising amino acids 379-382 of human p53 (Arg-His-Lys-Lys(Acetyl) (SEQ ID NO: 7) [Howitz K. T. et al., Nature 2003, 425, 191-196; and Vaziri H. et al., Cell 2001, 107, 149-159]. The assay's fluorescence signal is generated in proportion to the amount of Lys-382 deacetylation [Chabi B. et al., J. Appl. Physiol. 2009, 107, 1730-1735]. Briefly, 25 μg of total protein were incubated with Fluor de Lys-Sirt1 substrate (100 μM) and NAD^+ (100 μM) at 37° C. for 30 min in a final volume of 50 μl. The reaction was stopped by the addition of 50 μl of developer reagent and nicotinamide (2 mM) and the fluorescence was subsequently monitored for 30 min at 360 nm (excitation) and 460 nm (emission)."}, "[7]": {"tested_on": "Abcd1-null mice", "test": "Western blot of mitochondrial and antioxidant proteins in spinal cord", "type": "in vivo, mouse", "settings": "Abcd1− mice fed 2 months with pioglitazone", "source_text": "The following antibodies were used for Western Blots: anti-mouse NADH-ubiquinol oxidoreductase (NDUFB8: complex I): dilution 1/2000 (Molecular Probes); anti-mouse anti-Porin 31HL (VDAC or Voltage Dependant Anion Channel): dilution 1/1000 (Calbiochem); anti-rabbit DNP: dilution 1/100 (Invitrogen); anti-mouse PGC-1a: dilution 1/1000 (ST1202, Calbiochem); anti-rabbit SIRT1 for mouse: dilution 1/500 (12193, Abcam); anti-rabbit SIRT1 for human: dilution 1/500 (32441, Abcam) and anti-mouse γ-tubulin: dilution 1/5000 (T6557, clone GTU-88, Sigma). Goat anti-rabbit IgG linked to horseradish peroxidase, dilution: 1/15000 (P0448, Dako, Glostrup, Denmark) and Goat anti-mouse IgG linked to horseradish peroxidase, dilution: 1/15000 (G21040, Invitrogen) have been used as secondary antibodies.\nas §1\nTissues were removed from euthanized mice and flash-frozen on liquid nitrogen. Frozen tissues were homogenized in RIPA buffer boiled for 5 min and centrifuged. We measured protein concentration of the supernatant with a BCA (bicinchoninic acid) Protein Assay Kit (Pierce). 10 to 100 μg were loaded onto each lane of 10% polyacrylamide gels for 60 min at […]. Resolved proteins were transferred to nitrocellulose. Proteins were detected with ECL western blotting analysis system (Amersham Biosciences)."}, "[8]": {"test": "Weight and food intake during dietary treatment", "type": "in vivo, mouse", "settings": "both protocols of treatment (Abcd1-null 2 months; DKO 4 months), 9 mg/kg/day in chow", "experimental": "Pioglitazone (Actos®) was mixed into AIN-76A chow from Dyets (Bethlehem, Pa.) at 0.012% w/w, corresponding to a dose of 9 mg/kg/day per mice [Yan Q. et al., J. Neurosci. 2003, 23, 7504-7509]. […] Neurol. […] Mol. Genet. […] Mol. Genet. […] Mol. Genet. 2005, 14, 3565-3577]."}, "[9]": {"tested_on": "Abcd1−/Abcd2−/− (DKO) mice", "test": "Immunohistochemistry / histology of dorsal spinal cord (axonal degeneration)", "settings": "pioglitazone 4 months (13 to 17 months of age)", "from_the_text": "We set up a preclinical trial to assess the effect of pioglitazone on the progression of clinical signs using DKO null mice as the model Animals were randomly assigned to one of the following groups. […] We treated animals for 4 months starting at 13 months of age in order to start treatment at the onset of clinical signs [Lopez-Erauskin J. et al., Ann.\nSpinal cords were harvested from 18 month-old wild type (WT), Abcd1^−/Abcd2^−/− (DKO) and Abcd1^−/Abcd2^−/− fed with pioglitazone for 4 months (DKO+PIO), after perfusion with PFA 4%, basically as described [Lopez-Erauskin J. et al., Ann. […] Spinal cords were embedded in paraffin and serial sections, 5 μm thick, were cut in a transversal or longitudinal plane.\nThe number of abnormal specific profiles was counted at every 10 sections for each particular stain. At least three sections corresponding to the dorsal columns of the spinal cord were analysed per animal and per stain. Results were expressed as mean values±standard deviations.\nImmunohistochemistry experiments were performed."}, "[10]": {"tested_on": "Abcd1-null mice", "test": "GC/MS measurement of oxidative lesion markers in spinal cord proteins", "type": "in vivo, mouse", "settings": "Abcd1− mice fed 2 months with pioglitazone, FIG. 15a", "experimental": "as §1"}, "[11]": {"tested_on": "X-ALD patients", "settings": "recent study in X-ALD patients; cited from earlier work"}, "[12]": {"settings": "spinal cord, 12 months of age, FIG. 11"}},
  "note": "Entries after “also recorded” stand apart in the source; their conditions may differ.",
  "data": [
    {"compound": "CC[C@H](C)C(=O)O[C@H]1C[C@@H](C)C=C2C=C[C@H](C)[C@H](CC[C@@H]3C[C@@H](O)CC(=O)O3)[C@H]21", "note": "[Lovastatin]", "values": [
      {"measurement": "effect in vitro", "setting": "[1]", "result": "some effect"}
    ]},
    {"compound": "CCc1ccc(CCOc2ccc(CC3SC(=O)NC3=O)cc2)nc1", "note": "(racemic) [pioglitazone, 5-(4-[2-(5-ethylpyridin-2-yl)ethoxy]benzyl)thiazolidine-2,4-dione]", "values": [
      {"measurement": "ATP levels", "setting": "[2]; FIG. 14a", "result": "normalised"},
      {"measurement": "NADH levels", "setting": "[2]; FIG. 14b", "result": "normalised"},
      {"measurement": "activity of pyruvate kinase", "setting": "[2]; FIG. 14c", "result": "normalised"},
      {"measurement": "NRF1 mRNA", "setting": "[3]", "result": "increased"},
      {"measurement": "SIRT1 expression", "setting": "[3]", "result": "no effect"},
      {"measurement": "TFAM mRNA", "setting": "[3]", "result": "increased"},
      {"measurement": "expression of PGC-1α mRNA", "setting": "[3]", "result": "increased"},
      {"measurement": "number of slips", "setting": "[4]", "result": "full normalisation"},
      {"measurement": "time used to cross the bar", "setting": "[4]", "result": "full normalisation"},
      {"measurement": "levels of carbonylation on SIRT1 protein (SIRT1 oxidation)", "setting": "[5]", "result": "lowered; also recorded: normalized"},
      {"measurement": "SIRT1 activity", "setting": "[6]", "result": "rescued; also recorded: normalized"},
      {"measurement": "GPX1 protein level", "setting": "[7]; FIG. 15b", "result": "normalized"},
      {"measurement": "NDUFB8 protein level", "setting": "[7]; [12]", "result": "increased"},
      {"measurement": "VDAC protein level", "setting": "[7]; [12]", "result": "increased"},
      {"measurement": "food intake", "setting": "[8]", "result": "no effect"},
      {"measurement": "weight", "setting": "[8]", "result": "no effect"},
      {"measurement": "number of reactive astrocytes", "setting": "[9]; FIG. 16", "result": "strikingly reduced to control levels"},
      {"measurement": "number of reactive microglia", "setting": "[9]; FIG. 16", "result": "strikingly reduced to control levels"},
      {"measurement": "accumulation of markers of axonal damage (APP, synaptophysin in axonal swellings)", "setting": "[9]; FIG. 16, 17", "result": "strikingly reduced to control levels"},
      {"measurement": "AASA content", "setting": "[10]", "result": "normalized"},
      {"measurement": "CEL (glycoxidative) content", "setting": "[10]", "result": "normalized"},
      {"measurement": "GSA content", "setting": "[10]", "result": "normalized"},
      {"measurement": "MDAL (lipoxidative) content", "setting": "[10]", "result": "normalized"}
    ]},
    {"compound": "CCCC(CCC)C(=O)O", "note": "[VPA, valproic acid]", "values": [
      {"measurement": "adverse effects", "setting": "[11]", "result": "adverse effects such as trembling"}
    ]}
  ]
}
